In doi:10.1101/2022.04.05.487101v2 (biorxiv, 2022):

Target: SOX2 (Homo sapiens, UniProt P48431)
Assay: competitive EMSA
Type: binding
Conditions: 300 uM compound; pH 7.5; competes with DNA; off-target control

Sequence of SOX2 (P48431 whole entry): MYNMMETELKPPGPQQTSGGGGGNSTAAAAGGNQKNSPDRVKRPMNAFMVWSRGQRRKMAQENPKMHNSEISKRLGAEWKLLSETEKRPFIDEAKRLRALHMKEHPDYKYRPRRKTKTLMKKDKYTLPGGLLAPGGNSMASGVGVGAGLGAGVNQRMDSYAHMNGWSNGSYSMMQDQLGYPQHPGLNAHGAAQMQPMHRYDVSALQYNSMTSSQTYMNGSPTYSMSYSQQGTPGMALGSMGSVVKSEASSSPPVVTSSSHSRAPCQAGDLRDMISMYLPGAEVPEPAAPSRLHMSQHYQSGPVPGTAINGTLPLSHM

Cc1cc2nc(-c3cccc(NC(=O)c4ccc(C)c([N+](=O)[O-])c4)c3)oc2cc1C [A, Compound A]
competitive EMSA (loss of shifted biotin-DNA probe): SOX2 was competed by Compound A only
